Assays:
Assay in all cases: radiometric filter-binding kinase assay
[1] = biological target: AURKB (human) (UniProt Q96GD4)
[2] = biological target: CDK2 CCNA2 (human) (UniProt P20248+P24941)
[3] = biological target: CHEK2 (human) (UniProt O96017)
[4] = biological target: CSK (human) (UniProt P41240)
[5] = biological target: CSNK2A1 (human) (UniProt P68400)
[6] = biological target: DAPK1 (human) (UniProt P53355)
[7] = biological target: EEF2K (human) (UniProt O00418)
[8] = biological target: EPHB3 (human) (UniProt P54753)
[9] = biological target: ERBB4 (human) (UniProt Q15303)
[10] = biological target: FGFR1 (human) (UniProt P11362)
[11] = biological target: GSK3B (human) (UniProt P49841)
[12] = biological target: IKBKB (human) (UniProt O14920)
[13] = biological target: INSRR (human) (UniProt P14616)
[14] = system: LCK (mouse); conditions: accession and sequence are those of the human protein
[15] = biological target: MAP2K2 (human) (UniProt P36507)
[16] = biological target: MAP3K9 (human) (UniProt P80192)
[17] = biological target: MAPK1 (human) (UniProt P28482)
[18] = biological target: MAPK13 (human) (UniProt O15264)
[19] = biological target: MAPKAPK3 (human) (UniProt Q16644)
[20] = biological target: MARK4 (human) (UniProt Q96L34)
[21] = biological target: MELK (human) (UniProt Q14680)
[22] = biological target: MINK1 (human) (UniProt Q8N4C8)
[23] = biological target: MKNK1 (human) (UniProt Q9BUB5)
[24] = biological target: MKNK2 (human) (UniProt Q9HBH9)
[25] = biological target: MYLK (human) (UniProt Q15746)
[26] = biological target: NTRK1 (human) (UniProt P04629)
[27] = biological target: PHKG1 (human) (UniProt Q16816)
[28] = biological target: PRKACA (human) (UniProt P17612)
[29] = biological target: PRKCZ (human) (UniProt Q05513)
[30] = system: ROCK2 (rat); conditions: accession and sequence are those of the human protein
[31] = biological target: RPS6KA1 KD1 KD2 (human) (UniProt Q15418)
[32] = biological target: SRC (human) (UniProt P12931)
[33] = biological target: STK11 CAB39 STRADA (human) (UniProt Q9Y376+Q7RTN6+Q15831)
[34] = biological target: TTK (human) (UniProt P33981)
[35] = system: PRKAA1 or PRKAA2 (rat); conditions: accession and sequence are those of the human protein

Sequence of STK11 CAB39 STRADA (human) (Q15831 whole entry, looked up): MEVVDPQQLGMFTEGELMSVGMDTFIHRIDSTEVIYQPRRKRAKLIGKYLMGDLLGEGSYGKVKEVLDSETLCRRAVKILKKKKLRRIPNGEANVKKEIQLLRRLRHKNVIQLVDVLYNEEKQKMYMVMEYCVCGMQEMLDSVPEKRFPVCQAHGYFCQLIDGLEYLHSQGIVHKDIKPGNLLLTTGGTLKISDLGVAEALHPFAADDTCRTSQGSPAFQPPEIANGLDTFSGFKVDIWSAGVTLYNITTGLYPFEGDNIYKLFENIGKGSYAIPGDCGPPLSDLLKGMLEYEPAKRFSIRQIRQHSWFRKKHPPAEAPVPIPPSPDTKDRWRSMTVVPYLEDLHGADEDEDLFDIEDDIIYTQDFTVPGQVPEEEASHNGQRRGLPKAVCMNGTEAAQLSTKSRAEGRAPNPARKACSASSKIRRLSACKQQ
Sequence of STK11 CAB39 STRADA (human) (Q7RTN6 whole entry, looked up): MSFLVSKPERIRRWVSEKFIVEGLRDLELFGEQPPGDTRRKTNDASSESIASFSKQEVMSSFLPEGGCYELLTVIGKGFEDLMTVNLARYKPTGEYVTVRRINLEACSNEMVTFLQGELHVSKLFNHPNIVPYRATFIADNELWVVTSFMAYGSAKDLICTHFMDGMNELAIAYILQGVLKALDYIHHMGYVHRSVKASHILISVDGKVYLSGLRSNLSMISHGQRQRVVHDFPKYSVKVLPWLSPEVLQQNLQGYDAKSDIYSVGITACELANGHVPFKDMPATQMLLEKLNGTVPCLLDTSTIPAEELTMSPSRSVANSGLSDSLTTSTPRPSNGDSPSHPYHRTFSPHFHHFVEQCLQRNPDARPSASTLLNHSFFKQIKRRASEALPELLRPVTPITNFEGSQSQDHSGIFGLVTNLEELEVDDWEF
Sequence of STK11 CAB39 STRADA (human) (Q9Y376 whole entry, looked up): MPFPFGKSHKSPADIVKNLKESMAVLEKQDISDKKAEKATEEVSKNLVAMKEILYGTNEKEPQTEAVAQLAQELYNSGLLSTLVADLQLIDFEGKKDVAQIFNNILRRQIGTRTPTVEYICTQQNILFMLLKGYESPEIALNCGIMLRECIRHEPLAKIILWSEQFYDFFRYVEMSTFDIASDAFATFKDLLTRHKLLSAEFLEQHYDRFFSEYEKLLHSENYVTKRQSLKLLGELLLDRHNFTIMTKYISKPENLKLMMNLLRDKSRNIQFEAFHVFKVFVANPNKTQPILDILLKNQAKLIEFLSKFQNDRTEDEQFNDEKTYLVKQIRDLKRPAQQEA
Sequence of PHKG1 (human) (Q16816 whole entry, looked up): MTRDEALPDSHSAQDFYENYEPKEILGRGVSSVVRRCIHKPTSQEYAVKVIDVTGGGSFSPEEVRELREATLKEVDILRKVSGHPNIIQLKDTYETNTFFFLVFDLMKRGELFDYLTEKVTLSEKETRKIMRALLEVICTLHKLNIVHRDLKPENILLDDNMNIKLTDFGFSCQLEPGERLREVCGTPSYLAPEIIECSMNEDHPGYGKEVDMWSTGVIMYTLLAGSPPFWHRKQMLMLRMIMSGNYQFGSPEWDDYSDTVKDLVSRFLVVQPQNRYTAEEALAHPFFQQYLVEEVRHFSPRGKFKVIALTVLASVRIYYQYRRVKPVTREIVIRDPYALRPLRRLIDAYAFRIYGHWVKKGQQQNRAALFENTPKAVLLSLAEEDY
Sequence of NTRK1 (human) (P04629 whole entry, looked up): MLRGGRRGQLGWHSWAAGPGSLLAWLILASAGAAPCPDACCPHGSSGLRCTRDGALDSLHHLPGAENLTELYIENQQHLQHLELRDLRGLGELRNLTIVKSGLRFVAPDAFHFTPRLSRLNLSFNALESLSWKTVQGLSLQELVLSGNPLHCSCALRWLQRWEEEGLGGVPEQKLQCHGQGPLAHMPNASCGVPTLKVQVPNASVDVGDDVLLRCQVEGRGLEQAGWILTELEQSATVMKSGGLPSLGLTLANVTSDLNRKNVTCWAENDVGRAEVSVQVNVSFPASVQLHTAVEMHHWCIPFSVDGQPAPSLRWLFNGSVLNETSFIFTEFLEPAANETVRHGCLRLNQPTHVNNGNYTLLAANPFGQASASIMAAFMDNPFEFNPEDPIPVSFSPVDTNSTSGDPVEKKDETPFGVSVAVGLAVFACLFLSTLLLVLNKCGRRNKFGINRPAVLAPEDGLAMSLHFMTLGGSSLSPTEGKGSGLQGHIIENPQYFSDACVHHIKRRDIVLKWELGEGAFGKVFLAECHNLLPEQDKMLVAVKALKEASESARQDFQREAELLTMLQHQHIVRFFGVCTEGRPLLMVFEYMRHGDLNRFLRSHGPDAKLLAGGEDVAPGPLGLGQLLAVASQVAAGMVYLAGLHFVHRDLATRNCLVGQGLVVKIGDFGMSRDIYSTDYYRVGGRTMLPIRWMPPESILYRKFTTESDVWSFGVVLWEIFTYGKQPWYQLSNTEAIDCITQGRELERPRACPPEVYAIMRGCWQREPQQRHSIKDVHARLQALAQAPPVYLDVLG
Sequence of CHEK2 (human) (O96017 whole entry, looked up): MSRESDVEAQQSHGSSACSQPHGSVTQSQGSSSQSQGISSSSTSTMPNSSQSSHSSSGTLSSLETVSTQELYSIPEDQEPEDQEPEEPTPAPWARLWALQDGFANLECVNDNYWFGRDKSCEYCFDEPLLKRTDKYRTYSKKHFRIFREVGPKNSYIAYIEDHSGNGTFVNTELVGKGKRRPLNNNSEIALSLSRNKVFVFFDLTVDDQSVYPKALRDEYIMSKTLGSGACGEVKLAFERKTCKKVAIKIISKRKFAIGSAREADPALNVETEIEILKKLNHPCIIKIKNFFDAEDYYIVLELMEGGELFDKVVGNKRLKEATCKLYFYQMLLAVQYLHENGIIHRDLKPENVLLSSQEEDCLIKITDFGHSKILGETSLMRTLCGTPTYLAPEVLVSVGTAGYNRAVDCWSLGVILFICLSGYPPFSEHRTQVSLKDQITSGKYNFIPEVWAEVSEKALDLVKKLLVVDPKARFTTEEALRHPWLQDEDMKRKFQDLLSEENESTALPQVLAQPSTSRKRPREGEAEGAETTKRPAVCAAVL
Sequence of PRKCZ (human) (Q05513 whole entry, looked up): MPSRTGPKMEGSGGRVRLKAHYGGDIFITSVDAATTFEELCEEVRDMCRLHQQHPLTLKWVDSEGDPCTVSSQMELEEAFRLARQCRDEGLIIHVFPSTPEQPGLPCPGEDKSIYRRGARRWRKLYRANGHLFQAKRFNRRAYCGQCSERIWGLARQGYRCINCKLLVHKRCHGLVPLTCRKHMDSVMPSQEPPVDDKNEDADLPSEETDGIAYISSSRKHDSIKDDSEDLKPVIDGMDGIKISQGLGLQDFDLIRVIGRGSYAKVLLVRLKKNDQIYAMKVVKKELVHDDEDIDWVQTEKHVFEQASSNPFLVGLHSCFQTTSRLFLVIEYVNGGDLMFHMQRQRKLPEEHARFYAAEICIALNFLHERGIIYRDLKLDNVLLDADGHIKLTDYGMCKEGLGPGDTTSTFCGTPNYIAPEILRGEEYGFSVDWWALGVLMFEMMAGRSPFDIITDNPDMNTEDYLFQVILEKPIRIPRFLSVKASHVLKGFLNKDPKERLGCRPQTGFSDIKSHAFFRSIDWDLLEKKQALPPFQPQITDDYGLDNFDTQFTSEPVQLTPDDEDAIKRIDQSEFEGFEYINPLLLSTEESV
Sequence of IKBKB (human) (O14920 whole entry, looked up): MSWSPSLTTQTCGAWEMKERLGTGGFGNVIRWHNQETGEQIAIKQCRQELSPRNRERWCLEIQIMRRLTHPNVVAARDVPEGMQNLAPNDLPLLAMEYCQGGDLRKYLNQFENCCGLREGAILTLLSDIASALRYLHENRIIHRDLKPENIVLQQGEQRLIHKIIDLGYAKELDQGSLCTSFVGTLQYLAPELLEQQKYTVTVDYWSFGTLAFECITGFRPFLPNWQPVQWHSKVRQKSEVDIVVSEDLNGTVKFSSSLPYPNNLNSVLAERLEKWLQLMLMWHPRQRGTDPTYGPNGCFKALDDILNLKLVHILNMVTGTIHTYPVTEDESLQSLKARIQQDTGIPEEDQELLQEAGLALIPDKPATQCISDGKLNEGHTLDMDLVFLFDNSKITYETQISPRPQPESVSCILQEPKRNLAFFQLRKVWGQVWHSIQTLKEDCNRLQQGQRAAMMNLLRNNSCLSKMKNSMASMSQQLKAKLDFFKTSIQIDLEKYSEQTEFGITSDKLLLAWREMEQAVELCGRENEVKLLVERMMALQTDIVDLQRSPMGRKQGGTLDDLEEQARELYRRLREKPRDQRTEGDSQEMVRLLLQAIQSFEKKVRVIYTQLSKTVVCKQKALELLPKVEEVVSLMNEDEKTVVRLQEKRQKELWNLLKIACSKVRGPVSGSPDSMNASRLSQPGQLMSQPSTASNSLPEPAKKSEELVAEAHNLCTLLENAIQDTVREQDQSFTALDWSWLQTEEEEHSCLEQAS
Sequence of EEF2K (human) (O00418 whole entry, looked up): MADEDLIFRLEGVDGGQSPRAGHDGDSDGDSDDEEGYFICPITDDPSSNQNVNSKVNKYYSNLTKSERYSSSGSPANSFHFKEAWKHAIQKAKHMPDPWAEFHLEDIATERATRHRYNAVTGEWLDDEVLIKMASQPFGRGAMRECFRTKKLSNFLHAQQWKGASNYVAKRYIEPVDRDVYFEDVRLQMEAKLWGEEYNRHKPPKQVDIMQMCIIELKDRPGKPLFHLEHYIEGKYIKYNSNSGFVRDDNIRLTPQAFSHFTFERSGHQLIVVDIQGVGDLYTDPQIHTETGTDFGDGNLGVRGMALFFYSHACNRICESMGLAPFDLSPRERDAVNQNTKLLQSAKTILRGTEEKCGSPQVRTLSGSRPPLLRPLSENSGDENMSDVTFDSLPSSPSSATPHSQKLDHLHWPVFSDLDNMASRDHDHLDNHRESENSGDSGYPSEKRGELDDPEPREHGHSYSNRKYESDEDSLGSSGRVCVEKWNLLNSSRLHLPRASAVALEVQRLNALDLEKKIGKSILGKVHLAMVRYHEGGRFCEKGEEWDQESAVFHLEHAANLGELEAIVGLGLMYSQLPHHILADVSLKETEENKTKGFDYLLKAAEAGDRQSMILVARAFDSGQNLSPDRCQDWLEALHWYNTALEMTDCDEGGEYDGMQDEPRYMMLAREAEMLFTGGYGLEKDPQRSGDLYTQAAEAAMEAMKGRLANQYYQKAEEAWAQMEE

O=C(NCCCNc1nc(Nc2cccc(CN3CCOCC3)c2)ncc1C1CC1)C1CCC1
residual activity ([1]; compound 0.1 µM): 80%
residual activity ([1]; compound 1.0 µM): 54%
residual activity ([2]; compound 0.1 µM): 86%
residual activity ([2]; compound 1.0 µM): 47%
residual activity ([3]; compound 0.1 µM): 105%
residual activity ([3]; compound 1.0 µM): 72%
residual activity ([4]; compound 0.1 µM): 98%
residual activity ([4]; compound 1.0 µM): 112%
residual activity ([5]; compound 0.1 µM): 86%
residual activity ([5]; compound 1.0 µM): 86%
residual activity ([6]; compound 0.1 µM): 84%
residual activity ([6]; compound 1.0 µM): 72%
residual activity ([7]; compound 0.1 µM): 98%
residual activity ([7]; compound 1.0 µM): 110%
residual activity ([8]; compound 0.1 µM): 110%
residual activity ([8]; compound 1.0 µM): 101%
residual activity ([9]; compound 0.1 µM): 90%
residual activity ([9]; compound 1.0 µM): 95%
residual activity ([10]; compound 0.1 µM): 83%
residual activity ([10]; compound 1.0 µM): 63%
residual activity ([11]; compound 0.1 µM): 95%
residual activity ([11]; compound 1.0 µM): 96%
residual activity ([12]; compound 0.1 µM): 115%
residual activity ([12]; compound 1.0 µM): 122%
residual activity ([13]; compound 0.1 µM): 107%
residual activity ([13]; compound 1.0 µM): 118%
residual activity ([14]; compound 0.1 µM): 80%
residual activity ([14]; compound 1.0 µM): 67%
residual activity ([15]; compound 0.1 µM): 106%
residual activity ([15]; compound 1.0 µM): 75%
residual activity ([16]; compound 0.1 µM): 40%
residual activity ([16]; compound 1.0 µM): 16%
residual activity ([17]; compound 0.1 µM): 111%
residual activity ([17]; compound 1.0 µM): 110%
residual activity ([18]; compound 0.1 µM): 88%
residual activity ([18]; compound 1.0 µM): 90%
residual activity ([19]; compound 0.1 µM): 80%
residual activity ([19]; compound 1.0 µM): 104%
residual activity ([20]; compound 0.1 µM): 33%
residual activity ([20]; compound 1.0 µM): 29%
residual activity ([21]; compound 0.1 µM): 43%
residual activity ([21]; compound 1.0 µM): 26%
residual activity ([22]; compound 0.1 µM): 123%
residual activity ([22]; compound 1.0 µM): 103%
residual activity ([23]; compound 0.1 µM): 89%
residual activity ([23]; compound 1.0 µM): 96%
residual activity ([24]; compound 0.1 µM): 80%
residual activity ([24]; compound 1.0 µM): 50%
residual activity ([25]; compound 0.1 µM): 87%
residual activity ([25]; compound 1.0 µM): 103%
residual activity ([26]; compound 0.1 µM): 84%
residual activity ([26]; compound 1.0 µM): 47%
residual activity ([27]; compound 0.1 µM): 78%
residual activity ([27]; compound 1.0 µM): 28%
residual activity ([28]; compound 0.1 µM): 90%
residual activity ([28]; compound 1.0 µM): 100%
residual activity ([29]; compound 0.1 µM): 90%
residual activity ([29]; compound 1.0 µM): 95%
residual activity ([30]; compound 0.1 µM): 91%
residual activity ([30]; compound 1.0 µM): 81%
residual activity ([31]; compound 0.1 µM): 73%
residual activity ([31]; compound 1.0 µM): 34%
residual activity ([32]; compound 0.1 µM): 88%
residual activity ([32]; compound 1.0 µM): 70%
residual activity ([33]; compound 0.1 µM): 109%
residual activity ([33]; compound 1.0 µM): 118%
residual activity ([34]; compound 0.1 µM): 94%
residual activity ([34]; compound 1.0 µM): 74%

Nc1cccc2c1CN(C1CCC(=O)NC1=O)C2=O (stereo not given)
residual activity ([1]; compound 1.0 µM): 83%
residual activity ([1]; compound 10.0 µM): 105%
residual activity ([2]; compound 1.0 µM): 96%
residual activity ([2]; compound 10.0 µM): 87%
residual activity ([3]; compound 1.0 µM): 96%
residual activity ([3]; compound 10.0 µM): 93%
residual activity ([4]; compound 1.0 µM): 87%
residual activity ([4]; compound 10.0 µM): 97%
residual activity ([5]; compound 1.0 µM): 106%
residual activity ([5]; compound 10.0 µM): 93%
residual activity ([6]; compound 1.0 µM): 95%
residual activity ([6]; compound 10.0 µM): 104%
residual activity ([7]; compound 1.0 µM): 94%
residual activity ([7]; compound 10.0 µM): 82%
residual activity ([8]; compound 10.0 µM): 102%
residual activity ([9]; compound 10.0 µM): 106%
residual activity ([10]; compound 10.0 µM): 109%
residual activity ([11]; compound 10.0 µM): 92%
residual activity ([12]; compound 1.0 µM): 100%
residual activity ([12]; compound 10.0 µM): 106%
residual activity ([13]; compound 1.0 µM): 102%
residual activity ([13]; compound 10.0 µM): 109%
residual activity ([14]; compound 1.0 µM): 100%
residual activity ([14]; compound 10.0 µM): 99%
residual activity ([15]; compound 1.0 µM): 83%
residual activity ([15]; compound 10.0 µM): 81%
residual activity ([16]; compound 1.0 µM): 99%
residual activity ([16]; compound 10.0 µM): 99%
residual activity ([18]; compound 1.0 µM): 109%
residual activity ([18]; compound 10.0 µM): 123%
residual activity ([19]; compound 1.0 µM): 94%
residual activity ([19]; compound 10.0 µM): 86%
residual activity ([20]; compound 10.0 µM): 90%
residual activity ([21]; compound 1.0 µM): 94%
residual activity ([21]; compound 10.0 µM): 90%
residual activity ([22]; compound 1.0 µM): 111%
residual activity ([22]; compound 10.0 µM): 118%
residual activity ([23]; compound 1.0 µM): 116%
residual activity ([23]; compound 10.0 µM): 111%
residual activity ([24]; compound 1.0 µM): 80%
residual activity ([24]; compound 10.0 µM): 89%
residual activity ([25]; compound 1.0 µM): 94%
residual activity ([25]; compound 10.0 µM): 94%
residual activity ([26]; compound 10.0 µM): 141%
residual activity ([27]; compound 1.0 µM): 101%
residual activity ([27]; compound 10.0 µM): 103%
residual activity ([35]; compound 1.0 µM): 98%
residual activity ([35]; compound 10.0 µM): 92%
residual activity ([28]; compound 1.0 µM): 101%
residual activity ([28]; compound 10.0 µM): 84%
residual activity ([29]; compound 1.0 µM): 100%
residual activity ([29]; compound 10.0 µM): 108%
residual activity ([30]; compound 1.0 µM): 90%
residual activity ([30]; compound 10.0 µM): 88%
residual activity ([31]; compound 1.0 µM): 98%
residual activity ([31]; compound 10.0 µM): 97%
residual activity ([32]; compound 1.0 µM): 105%
residual activity ([32]; compound 10.0 µM): 114%
residual activity ([33]; compound 1.0 µM): 116%
residual activity ([33]; compound 10.0 µM): 112%
residual activity ([34]; compound 1.0 µM): 104%
residual activity ([34]; compound 10.0 µM): 118%

Reference: the kinase profiling compilation of Christmann-Franck et al. (2016)
